Laboratory results from patent US20220380430A1, “Non-Transgenic Functional Rescue of Neuropeptides” (Worcester Polytechnic Institute, priority 2021, published 2022).

Tests used:
C. elegans = experiment: Single worm attraction assay (SWAA) of ascarosides; type: in vivo; details: males; in words
Protocol: The spot retention assay was adapted to allow for better characterization of individual worm behavior and robust interrogation of attraction to small molecules. The attractiveness of 1 μM ascr #8 (FIG. 11A) were compared across multiple strains of C. elegans (the wild-type N2 strain, the high incidence of male him-5 and him-8 strains, and the chemosensory cilia defective osm-3), using the novel behavioral assay, the single worm attraction assay (SWAA) (FIG. 11A). In this assay, individual animals were placed directly into the spot of the ascaroside cue (A) while simultaneously removing any potential of male-male contact. […] Likewise, a vehicle control (V) is also included, to account of any changes in dwell time that are driven by the components of the vehicle. The outer forty wells of a 48-well suspension culture plate (Olympus Plastics, Cat #: 25-103) were seeded with 200 μL of standard NGM agar. To prepare the plates for the assay, they were acclimated to room temperature, at which point each well was seeded with 65 μL of OP50 E. coli. The assay plates were then transferred to a 37° C. incubator with the lid tilted for 4 h to allow the bacterial culture to dry on the agar. Once the bacterial culture dried, the lid was replaced the plate was stored at 20° C. until used in the assay. Fifty to sixty L4 worms were segregated by sex and stored at 20° C. for 5 h to overnight to be assayed as young adults. 0.8 μL of either vehicle control or ascaroside #8 was placed in the center of the well corresponding to that condition within the quadrant being tested, following a random block design (FIG. 11A). A single worm was placed in each of the 10 wells to be assayed, and the plate was transferred to a light source and camera and recorded for 15 m. […] Raw dwell time values were calculated by subtracting the time a worm exited the cue (center of the well in spatial controls), from the time it entered, as in the SRA. This was determined per visit, and the average dwell time was calculated for each animal in the quadrant. Averages of the four-quadrant means were determined per plate, and a minimum of five plates were assayed per strain/condition. The mean raw dwell time across five plates was calculated and used for statistical analyses and graphical display. […] An “attractive visit” was first determined for each plate as any visit greater than two standard deviations above the mean dwell time within the vehicle control for that plate. Any individual visit meeting this threshold was scored as a “1”, and any below was scored a “0”. The percent visits per-worm that were attractive was determined, and the average of each quadrant taken. […] The average percent of attractive visits across five plates was calculated and used for statistical analyses and graphical display.

trh-1 mutant worms = experiment: Size comparison (body volume) after rescue-by-feeding; type: in vivo, C. elegans; details: for restoration of body volume: trh-1 lof animals fed E. coli expressing peptide, in words; for Relative Body Volume: trh-1 mutant animals fed peptide, N2 set as 100%
Protocol: All animals were maintained on bacterial lawns of OP50 E. coli, at 20° C., on NGM agar plates until the start of experiments. Mutant or control animals were transferred onto lawns of DH5α E. coli expressing either scramble peptide or the rescue peptide-of-interest on NGM plates containing […] AMP and 1 mM IPTG. Animals were reared on the peptide-expressing lawns for at least 48 hours at 20° C. before assaying for rescue of mutant phenotype at the appropriate developmental stage.
The body morphology different of trh-1 mutants was compared to wild-type worms by body volume measurements. Wild-type (N2) and trh-1 animals were synchronized by embryonic starvation following alkaline hypochlorite protocols. Ten gravid hermaphrodites from OP50 E. coli plates were picked into 30 μL drops of alkaline hypochlorite solution (20% sodium hypochlorite, 500 mM KOH). Two drops were placed on either side of an unseeded NGM plate, resulting in 20 animals per plate. Plates were then incubated for 24 hours at 20° C. before L1 larval animals washed with 1 mL M9 (22 mM KH2PO4, 42.25 mM Na2HPO4, 85.5 mM NaCl, 1 mM MgSO4) per unseeded NGM plate. Allow L1 worms to settle into pellet before removing M9 supernatant. Repeat washing step 2 more times. Plate worm pellet onto NGM with […] AMP and 1 mM IPTG plates containing 75 μL peptide lawns.
After at 48 hours at 20° C., animals were recorded using a Basler acA2500-14 uM camera using WormLab software (WormLab 4.1; MBF Bioscience, 2017) for 65 seconds. Worm length, width, and area were calculated within the WormLab software (FIG. 5C-FIG. 5H). As the WormLab worm width metric is an average of cross-sections throughout the length of each worm, this was used to calculate the volume of a worm as a cylinder, with the Volume=π*(0.5*width)^2*length (FIG. 2A-FIG. 2B, FIG. 5A-FIG. 5B).
Two to four plates were recorded per day for at least three days to generate data sets. Control plates of N2 and trh-1 animals raised on the scramble peptide were grown alongside every rescue feeding. Each “worm track” was considered an n=1. Tracks were excluded if (1) worm tracks less than 10 seconds, or (2) worms were further than two standard deviations from the mean metric. Following tests for normality, comparisons were made using either Mann-Whitney tests for direct comparisons between N2 and trh-1 animals reared on OP50, or Kruskal-Wallis non-parametric ANOVAs and Dunn's multiple comparisons tests for animals raised on peptide feeding strains. Comparisons were made for metrics: length (FIG. 5C-FIG. 5D), width (FIG. 5e-FIG. 5F), area (FIG. 5G-FIG. 5H), and volume (FIG. 2A-FIG. 2B, FIG. 5A-FIG. 5B).

| Molecule | male attraction in the SWAA (C. elegans) | restoration of body volume (trh-1 mutant worms) | Relative Body Volume (trh-1 mutant worms) [%] |
| --- | --- | --- | --- |
| C[C@H](CCCC/C=C/C(=O)O)O[C@@H]1O[C@@H](C)[C@H](O)C[C@H]1O [ascr #3] | maintains its ability to attract males in the SWAA | – | – |
| ANELF-NH2 [TRH-1B] | – | complete restoration of wild-type body volume | ~100 |
| GRELF-NH2 [TRH-1A] | – | complete restoration of wild-type body volume | ~100 |
